Test results published in US9724408B2, “Compositions and methods for activating stimulator of interferon gene-dependent signalling” (ADURO BIOTECH, INC., priority 2013, dated 2017).

Experiments:
[1] = test system: natural killer (NK) cells, CD4+ and CD8+ T cells; test: Surface CD69 upregulation on lymphocytes after subcutaneous CDN (FACS); type: in vivo, BALB/c mice; conditions: 50, 5 and 0.5 μM in 100 μL, base of the tail, 24 hours, FIG. 11
Method: To determine the relative ability of the derivative molecules to activate immune responses, CDN compounds were administered to 6-8 week old female BALB/c mice (in a total volume of 100 μL in HBSS) at doses of 50, 5 and 0.5 μM by subcutaneous injection into the base of the tail. Mice were assessed 24 hours later for lymphocyte immune cell activation by fluorescent activated cell sorting (FACS) for upregulation of surface CD69 expression on natural killer (NK) cells, CD4+ and CD8+ T cells, as compared to IgG1 isotype controls.

[2] = test system: CT26 colon carcinoma cells; test: CT26 colon carcinoma flank tumor model, intratumoral CDN; type: in vivo, BALB/c mice; conditions: for complete inhibition of tumor growth of established CT26 tumors: every three days, three injections, 8 mice per group, FIG. 19B
Method: Either CT26 colon carcinoma cells (1×10^5 cells in 100 μL PBS) or 4T1 mammary carcinoma cells (1×10^5 cells in 100 μL PBS) were implanted subcutaneously on the flanks of 6-8 week old female BALB/c mice (8 mice per group). Treatments began when tumors reached a volume of approximately 75 mm^3, which was approximately day 14 post tumor implantation. The compounds Rp, Rp dithio cyclic [A(2′,5′)pA(3′,5′)p] (ML RR-CDA) or Rp, Rp dithio cyclic [G(2′,5′)pG(3′,5′)p] (ML RR-CDG) compounds (25 μg in a total volume of 40 μL HBSS), or HBSS vehicle control, and Rp, Rp dithio cyclic [A(2′,5′)pA(3′,5′)p] (ML RR-CDA) (50 μg in a total volume of 40 μL HBSS) or HBSS vehicle control, were administered by subcutaneous injection into the center of the tumor using a 27 gauge needle. Injections were repeated every three days, for a total of three intratumoral injections.
To determine whether the synthetic derivative CDN molecules elicit durable and effective anti-tumor T-cell immunity, 6-8 week old female BALB/c mice (8 mice per group) were implanted with CT26 colon carcinoma cells (1×10^5 cells in 100 μL PBS). Mice were treated with Rp, Rp dithio cyclic [A(2′,5′)pA(3′,5′)p] (ML RR-CDA) compound ([…] in a total volume of 40 μL HBSS) or HBSS vehicle control, and tumor growth was monitored as per previous example. Mice were bled on day 18 post tumor implantation and PBMCs were isolated by Ficoll gradient (Miltenyi Biotech). 5×10^4 PBMCs were stimulated overnight in an IFNγ ELISpot assay with media alone (unstimulated), or with 1 μM of the endogenous H-2 L^d-restricted tumor rejection antigen AH1 peptide in the presence of 1×10^5 naïve splenocytes as feeder cells. IFN-γ ELISpot plates were developed and quantified using a CTL plate reader and ImmunoSpot software. On day 55 post tumor implantation, surviving mice and age-matched naïve control mice were implanted on the contralateral flank with either CT26 or 4T1 (both 1×10^5 cells in 100 μL PBS) tumor cells (4 mice per group), and monitored for tumor growth.

[3] = test system: human STING variants (WT, REF, HAQ, AQ and Q); test: IFNβ-LUC reporter in HEK293T cells expressing human STING alleles; type: cell-based; conditions: 10 μM, digitonin permeabilization, 6 hrs, FIG. 14
Method: MSCV2.2 plasmids encoding hSTING(REF)-GFP, hSTING(WT)-GFP, hSTING(HAQ)-GFP, hSTING(Q)-GFP and mSTING(WT)-GFP were obtained from the Vance Laboratory at UC Berkeley. hSTING(AQ)-GFP was derived from hSTING(Q)-GFP using a QuickChange Site-Directed Mutagenesis kit (Stratagene). […] 1×10^4 HEK293T STING cells were seeded in 96-well plates and transiently transfected (using Lipofectamine 2000) with 50 ng of a human IFN-β reporter plasmid (pLuc-IFN-β) expressing the human IFN-β promoter upstream of a luciferase reporter and 10 ng of TK-renilla for normalization. 24 hours later, cells were stimulated with native and synthetic CDN derivative molecules using digitonin permeabalization to ensure uniform uptake. Each STING cell line was stimulated with 10 μM of cyclic [G(3′,5′)pA(3′,5′)p] (cGAMP), cyclic [G(2′,5′)pA(3′,5′)p] […] (RR-CDA), cyclic [A(2′,5′)pA(3′,5′)p] […] (RR-CDG), cyclic [G(2′,5′)pG(3′,5′)p] […] (ML RR-CDG) in 25 ul digitonin buffer (50 mM HEPES, 100 mM KCL, 3 mM MgCl2, 0.1 mM DTT, 85 mM Sucrose, 0.2% BSA, 1 mM ATP, 0.1 mM GTP, 10 ug/ml digitonin). After 20 min, the stimulation mixtures were removed and 200 ul of standard RPMI media was added. After stimulation for 6 hrs, cell lysates were prepared and reporter gene activity measured using the Dual Luciferase Assay System (Promega) on a Spectramax M3 luminometer.

Compound | immune cell activation (surface CD69 on NK, CD4+ and CD8+ T cells) [1] | rejection of established CT26 colon carcinomas ([2]; 50 mg in a total volume of 40 μL HBSS, FIG. 21A) | complete inhibition of tumor growth of established CT26 tumors [2] | IFNβ reporter activity, all human STING alleles [3]
Nc1ncnc2c1ncn2[C@@H]1O[C@@H]2COP(O)(=S)O[C@@H]3C(O)[C@@H](COP(O)(=S)O[C@H]2[C@H]1O)O[C@H]3n1cnc2c(N)ncnc21 (stereo partly shown) [ML RR-CDA, dithio-[RP, RP]-cyclic-[A(2′,5′)pA(3′,5′)p]] | induced NK and T cell activation, although to a lesser extent than the ML RR-CDG molecule | all mice treated with ML RR-CDA rejected the growth of established CT26 colon carcinomas | completely inhibited tumor growth of all established CT26 tumors | strongly induce IFNβ reporter activity by all human STING alleles
Nc1nc2c(ncn2[C@@H]2O[C@@H]3CO[P@@](O)(=S)O[C@@H]4[C@H](O)[C@@H](CO[P@@](O)(=S)O[C@H]3[C@H]2O)O[C@H]4n2cnc3c(=O)[nH]c(N)nc32)c(=O)[nH]1 [ML RR-CDG, dithio-[RP,RP]-cyclic-[G(2′,5′)pG(3′,5′)p]] | potent immune activation of NK and T cells in a dose-dependent manner | – | 7 out of 8 | strongly induce IFNβ reporter activity by all human STING alleles
